# Laboratory results as given in article PMC10607100, “Anticancer and Antiphytopathogenic Activity of Fluorinated Isatins and Their Water-Soluble Hydrazone Derivatives” (International Journal of Molecular Sciences, 2023).
# Read-outs that look alike come from different tables or passages of the source.
# Assays:
# Assay type in all cases: cell-based
# Micrococcus luteus B-109 = test: Agar-well diffusion, bactericidal activity; details: Micrococcus luteus
# From the text: (§1) Plant pathogenic bacterial strains Micrococcus luteus B-109, Pectobacterium atrosepticum 1043, Pectobacterium carotovorum subsp. carotovorum MI, Pseudomonas fluorescens EL-2.1, and Xanthomonas campestris B-610 and the fungal strain Fusarium oxysporum IBPPM 543 were from the Collection of Rhizosphere Microorganisms, IBPPM RAS (WFCC no. 975, WDCM no. 1021) (CM IBPPM, http://collection.ibppm.ru). The pathogenic fungus Phytophthora cactorum VKM F-985, provided by the All-Russian Collection of Microorganisms (VKM) and deposited at the A.E. Favorsky Irkutsk Institute of Chemistry, SB RAS, was also used as a test organism. Bacteria M. luteus, P. carotovorum subsp. carotovorum, P. atrosepticum, and P. fluorescens were grown in a meat–peptone medium (BP), and X. campestris was grown in the medium with glucose, yeast extract, and calcium carbonate (GYCa). Solid media contained Bacto agar (18 g/L); pH was adjusted to 7.2–7.4. All bacterial cultures were grown at 28 °C. The mycelial cultures of F. oxysporum and P. cactorum were grown on a glucose–peptone–yeast (GPY) nutrient medium at 27 °C. For inoculum preparation, both fungal strains were initially grown on the agar GPY in Petri dishes and then transferred into the seed medium by punching out 5 mm of the agar plate culture with a self-designed cutter.
# (§2) The antibacterial and antifungal activities of the compounds were explored using the agar-well diffusion method and the technique of mycelial radial growth inhibition. The method of diffusion in agar (measuring the diameter of growth inhibition zones) was used to determine the bactericidal activity. The 6-mm wells were made in agar medium (GYCa for Xanthomonas campestris or BP for other bacteria). Bacterial suspensions were distributed over the agar surface, and the tested compound’s solution (150 μL) was added to each well. The width of growth inhibition zones around the wells was determined after incubation for 36–40 h.
# [1] = system: Pectobacterium atrosepticum 1043; test: Agar-well diffusion, bactericidal activity; details: Pectobacterium atrosepticum, 1043; 2 mM/L; average of 3 experiments; read-out: width of the inhibition zone (mm), P. atrosepticum
# From the text: as §1, §2
# [2] = system: Pectobacterium carotovorum subsp. carotovorum MI; test: Agar-well diffusion, bactericidal activity; details: Pectobacterium carotovorum, 2 mM/L
# From the text: as §1, §2
# [3] = system: Pseudomonas fluorescens EL-2.1; test: Agar-well diffusion, bactericidal activity; details: Pseudomonas fluorescens, EL2.1; 2 mM/L; average of 3 experiments; read-out: width of the inhibition zone (mm), Ps. fluorescens
# From the text: as §1, §2
# [4] = system: Xanthomonas campestris B-610; test: Agar-well diffusion, bactericidal activity; details: Xanthomonas campestris
# Experimental: Bacteria M. luteus, P. carotovorum subsp. carotovorum, P. atrosepticum, and P. fluorescens were grown in a meat–peptone medium (BP), and X. campestris was grown in the medium with glucose, yeast extract, and calcium carbonate (GYCa). Solid media contained Bacto agar (18 g/L); pH was adjusted to 7.2–7.4. […] For inoculum preparation, both fungal strains were initially grown on the agar GPY in Petri dishes and then transferred into the seed medium by punching out 5 mm of the agar plate culture with a self-designed cutter.
# as §2
# [5] = system: five representative phytopathogens; test: Agar-well diffusion, bactericidal activity over the panel of phytopathogens; details: 36 h, 2 mM solutions; dependent on the test system used; read-out: inhibition zone width (mm), range over the test systems
# From the text: as §1, §2
# [6] = system: Fusarium oxysporum IBPPM 543; test: Mycelial radial growth inhibition; details: for inhibition of growth at 1 µM: 1 nmol/mL; for inhibition of growth at 1 µM / inhibition of growth at 5 µM / inhibition of growth at 20 µM / inhibition of growth at 40 µM: read-out: Inhibition value, I (%); for inhibition of growth at 5 µM: 5 nmol/mL; for inhibition of growth at 20 µM: 20 nmol/mL; for inhibition of growth at 40 µM: 40 nmol/mL
# From the text: as §1
# (§3) For the fungicidal activity analysis, radial growth (colony diameters) of the fungi on a solid medium in the absence and in the presence of the compounds 5a–e and 7a–c solutions at various concentrations were compared. The method consisted of the following: A sterile GPY agar medium (20.0 mL), which was melted and then allowed to cool to approximately 60 °C, was mixed with the precisely measured volumes of the solutions under question and poured into a sterile Petri dish (90 mm i.d.). After the solidification of GPY agar, the media were inoculated by the fungus using 10-day-old cultures of F. oxysporum or P. cactorum. The inoculation was conducted by transferring a 5-mm (i.d.) GPY-agar block covered with mycelium to the center of the Petri dish, followed by incubation in a thermostat at 27 °C. The fungicidal effect was scored by the size of the mycelium colony on a Petri dish compared to the control without fungicidal admixtures to GPY agar. Each treatment was performed in at least four replicates in two independent experiments. The observation period ended when the control Petri dish was filled with mycelium (usually after 12 days). […] The solutions of the compounds were prepared with a concentration of 2 mmol/L (stock solution). For comparison, test compounds were also commonly applied as disinfecting agents, and antibiotics were used as a positive control.
# [7] = system: Phytophthora cactorum VKM F-985; test: Mycelial radial growth inhibition; details: for inhibition of growth at 3 µM: 3 nmol/mL; for inhibition of growth at 3 µM / inhibition of growth at 7 µM / inhibition of growth / inhibition of growth at 40 µM: read-out: Inhibition value, I (%); for inhibition of growth at 7 µM: 7 nmol/mL; for inhibition of growth: 27 nmol/mL; for inhibition of growth at 40 µM: 40 nmol/mL
# From the text: as §1, §3
# [8] = Fusarium oxysporum, IBPPM543, 72 h, age of the fungus 3 days
# [9] = Fusarium oxysporum, IBPPM543, 120 h, age of the fungus 5 days
# [10] = Fusarium oxysporum, IBPPM543, 168 h, age of the fungus 7 days
# [11] = Fusarium oxysporum, IBPPM543, 216 h, age of the fungus 9 days
# [12] = Phytophthora cactorum, 72 h, age of the fungus 3 days
# [13] = Phytophthora cactorum, 120 h, age of the fungus 5 days
# [14] = Phytophthora cactorum, 168 h, age of the fungus 7 days
# [15] = Phytophthora cactorum, 216 h, age of the fungus 9 days
compound,measurement,setting,value
Cc1ccc[n+](CC(=O)N/N=C2\C(=O)N(Cc3c(F)cccc3Cl)c3ccccc32)c1C [Compound 7b],zone of inhibition at 2000 µM,"Micrococcus luteus B-109; B109, 2 mM/L, average of 3 experiments, read-out: width of the inhibition zone (mm), M. luteus",7 mm
same,zone of inhibition at 2000 µM,"Micrococcus luteus B-109; B109, Table S3, 2 mM/L, read-out: Inhibition zone width (mm), not less",≥ 7 mm
same,zone of inhibition at 2000 µM,[1],4 mm
same,zone of inhibition at 2000 µM,"[2]; average of 3 experiments, read-out: width of the inhibition zone (mm), P. carotovorum subsp. carotovorum",5 mm
same,zone of inhibition at 2000 µM,"[2]; Table S3, read-out: Inhibition zone width (mm), not less",≥ 5 mm
same,zone of inhibition at 2000 µM,[3],4.5 mm
same,zone of inhibition at 2000 µM,"[4]; B610, 2 mM/L, average of 3 experiments, read-out: width of the inhibition zone (mm), X. campestris",7 mm
same,zone of inhibition at 2000 µM,"[4]; B610, Table S3, 2 mM/L, read-out: Inhibition zone width (mm), not less",≥ 7 mm
same,zone of inhibition at 2000 µM,[5],4 to 7 mm
same,inhibition of growth at 1 µM,[6]; [8],13%
same,inhibition of growth at 5 µM,[6]; [8],32%
same,inhibition of growth at 20 µM,[6]; [8],35%
same,inhibition of growth at 40 µM,[6]; [8],55%
same,EC50,"[6]; Fusarium oxysporum, IBPPM543, 120 h, day 5, read-out: EC50, µg/mL at Day 5, F. oxysporum",≤ 21 µg/mL
same,inhibition of growth at 1 µM,[6]; [9],15%
same,inhibition of growth at 5 µM,[6]; [9],29%
same,inhibition of growth at 20 µM,[6]; [9],35%
same,inhibition of growth at 40 µM,[6]; [9],52%
same,inhibition of growth at 1 µM,[6]; [10],10%
same,inhibition of growth at 5 µM,[6]; [10],20%
same,inhibition of growth at 20 µM,[6]; [10],30%
same,inhibition of growth at 40 µM,[6]; [10],43%
same,inhibition of growth at 1 µM,[6]; [11],11%
same,inhibition of growth at 5 µM,[6]; [11],13%
same,inhibition of growth at 20 µM,[6]; [11],25%
same,inhibition of growth at 40 µM,[6]; [11],39%
same,fungicidal action stronger than N-cetylpyridinium chloride,[6]; same culture age (5 days),7.0 times
same,inhibition of Fusarium growth greater than fludioxonil,[6]; same culture age (5 days),4.1 times
same,antagonistic effect superior to that of N-cetylpyridinium chloride,[7]; 5 days of growth,1.3 times
same,antagonistic effect superior to that of fludioxonil,[7]; 5 days of growth,1.1 times
same,inhibition of growth at 3 µM,[7]; [12],15%
same,inhibition of growth at 7 µM,[7]; [12],25%
same,inhibition of growth,[7]; [12],30%
same,inhibition of growth at 40 µM,[7]; [12],39%
same,EC50,"[7]; Phytophthora cactorum, 120 h, day 5, read-out: EC50, µg/mL at Day 5, P. cactorum",≤ 28 µg/mL
same,inhibition of growth at 3 µM,[7]; [13],12%
same,inhibition of growth at 7 µM,[7]; [13],25%
same,inhibition of growth,[7]; [13],32%
same,inhibition of growth at 40 µM,[7]; [13],40%
same,inhibition of growth at 3 µM,[7]; [14],9%
same,inhibition of growth at 7 µM,[7]; [14],22%
same,inhibition of growth,[7]; [14],28%
same,inhibition of growth at 40 µM,[7]; [14],37%
same,inhibition of growth at 3 µM,[7]; [15],7%
same,inhibition of growth at 7 µM,[7]; [15],16%
same,inhibition of growth,[7]; [15],21%
same,inhibition of growth at 40 µM,[7]; [15],35%
